Test results as given in patent US6355799B1, “Substituted benzene compounds, process for their preparation, and herbicidal and defoliant compositions containing them” (ISK Americas Incorporated, priority 1997, dated 2002).

Experiments:
Format in all cases: in vivo
[1] = test system: lambsquarters (Chenopodium album, CHEAL); test: Post-emerge test, greenhouse herbicide activity screening; settings: phytotoxicity rating 0-100 (0 no damage, 100 complete death), 14 days after application
In short: (§1)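 Applied at 15–1000 g ai/ha from acetone in 187 l/ha spray volume. Post-emergence applications included 0.25% v/v non-ionic surfactant and reached plants sown 8–21 days before. Pre-emergence applications were incorporated by surface watering. Efficacy or crop damage was rated on a 0–100 scale after 14 days.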

[2] = test system: velvetleaf (Abutilon theophrasti, ABUTH); test: as above; settings: phytotoxicity rating 0-100 (0 no damage, 100 complete death), 14 days after application
In short: as §1

[3] = test system: large crabgrass (Digitaria sanguinalis, DIGSA); test: as above; settings: phytotoxicity rating 0-100 (0 no damage, 100 complete death), 14 days after application
In short: as §1

[4] = test system: redroot pigweed (Amaranthus retroflexus, AMARE); test: as above; settings: phytotoxicity rating 0-100 (0 no damage, 100 complete death), 14 days after application
In short: as §1

[5] = test system: sicklepod (Cassia obtusifolia, CASOB); test: as above; settings: phytotoxicity rating 0-100 (0 no damage, 100 complete death), 14 days after application
In short: as §1

[6] = test system: ivyleaf morningglory (Ipomoea hederacea, IPOHE); test: as above; settings: phytotoxicity rating 0-100 (0 no damage, 100 complete death), 14 days after application
In short: as §1

[7] = test system: green foxtail (Setaria viridis, SETVI); test: as above; settings: phytotoxicity rating 0-100 (0 no damage, 100 complete death), 14 days after application
In short: as §1

[8] = test system: barnyardgrass (Echinochloa crus-galli, ECHCG); test: as above; settings: phytotoxicity rating 0-100 (0 no damage, 100 complete death), 14 days after application
In short: as §1

[9] = test system: common ragweed (Ambrosia artemisizfolia L., AMBEL); test: as above; settings: phytotoxicity rating 0-100 (0 no damage, 100 complete death), 14 days after application
In short: as §1

[10] = test system: johnsongrass (Sorghum halepense, SORHA); test: as above; settings: phytotoxicity rating 0-100 (0 no damage, 100 complete death), 14 days after application
In short: as §1

[11] = test system: lambsquarters (Chenopodium album, CHEAL); test: Pre-emerge test, greenhouse herbicide activity screening; settings: pre-emerge, rated 14 days after application, 0 = no damage, 100 = complete death
In short: (§2)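 Compounds in acetone were track-sprayed at 15-1000 g ai/ha (187 l/ha) on sandy loam pots: pre-emerge one day after seeding, post-emerge at 2-3 leaf stage with 0.25% v/v non-ionic surfactant. Phytotoxicity was rated 14 days later on a 0 (no damage) to 100 (complete death) scale.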

[12] = test system: velvetleaf (Abutilon theophrasti, ABUTH); test: as above; settings: pre-emerge, rated 14 days after application, 0 = no damage, 100 = complete death
In short: as §2

[13] = test system: large crabgrass (Digitaria sanguinalis, DIGSA); test: as above; settings: pre-emerge, rated 14 days after application, 0 = no damage, 100 = complete death
In short: as §2

[14] = test system: sicklepod (Cassia obtusifolia, CASOB); test: as above; settings: pre-emerge, rated 14 days after application, 0 = no damage, 100 = complete death
In short: as §2

[15] = test system: ivyleaf morningglory (Ipomoea hederacea, IPOHE); test: as above; settings: pre-emerge, rated 14 days after application, 0 = no damage, 100 = complete death
In short: as §2

[16] = test system: green foxtail (Setaria viridis, SETVI); test: as above; settings: pre-emerge, rated 14 days after application, 0 = no damage, 100 = complete death
In short: as §2

[17] = test system: barnyardgrass (Echinochloa crus-galli, ECHCG); test: as above; settings: pre-emerge, rated 14 days after application, 0 = no damage, 100 = complete death
In short: as §2

[18] = test system: johnsongrass (Sorghum halepense, SORHA); test: as above; settings: pre-emerge, rated 14 days after application, 0 = no damage, 100 = complete death
In short: as §2

[19] = test system: upland rice (Oryza sp., var. Tebonnet, RICE); test: Pre-emerge test, crop safety; settings: pre-emerge, rated 14 days after application, 0 = no damage, 100 = complete death
In short: (§3)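 Visual ratings on a 0-100 scale (0 no damage, 100 all plants dead) were taken at 14 days after treatment. Rates of 15-1000 g ai/ha in acetone, 187 l/ha, were sprayed onto soil one day after planting (pre-emerge) or onto 2-3 leaf plants with 0.25% v/v surfactant (post-emerge).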

[20] = test system: field corn (Zea mays L., var. Dekalb 535, CORN); test: Pre-emerge test, crop safety; settings: pre-emerge, rated 14 days after application, 0 = no damage, 100 = complete death
In short: as §3

[21] = test system: redroot pigweed (Amaranthus retroflexus, AMARE); test: Pre-emerge test, greenhouse herbicide activity screening; settings: pre-emerge, rated 14 days after application, 0 = no damage, 100 = complete death
In short: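 Plants grown in 10 cm pots of sandy loam mix received acetone-dissolved compounds through a moving flat-fan nozzle. Doses ranged from 15 to 1000 g ai/ha. Pre-emerge pots were seeded one day earlier, post-emerge pots 8–21 days earlier. Fourteen days on, each pot was graded 0–100 for damage.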

[22] = test system: upland rice (Oryza sp., var. Tebonnet, RICE); test: Post-emerge test, crop safety; settings: phytotoxicity rating 0-100 (0 no damage, 100 complete death), 14 days after application
In short: as §2

[23] = test system: field corn (Zea mays L., var. Dekalb 535, CORN); test: Post-emerge test, crop safety; settings: phytotoxicity rating 0-100 (0 no damage, 100 complete death), 14 days after application
In short: as §2

## CC(C)Oc1c(Cl)cc(F)c(-n2c(=O)cc(C(F)(F)F)n(C)c2=O)c1N [Compound 1-63]
[1]; 63 g ai/ha
  Post-emerge Herbicidal Activity CHEAL: 20
[1]; 250 g ai/ha
  Post-emerge Herbicidal Activity CHEAL: 50
[2]; 63 g ai/ha
  Post-emerge Herbicidal Activity ABUTH: 70
[2]; 250 g ai/ha
  Post-emerge Herbicidal Activity ABUTH: 100
[3]; 63 g ai/ha
  Post-emerge Herbicidal Activity DIGSA: 0
[3]; 250 g ai/ha
  Post-emerge Herbicidal Activity DIGSA: 0
[4]; 63 g ai/ha
  Post-emerge Herbicidal Activity AMARE: 10
[4]; 250 g ai/ha
  Post-emerge Herbicidal Activity AMARE: 10
[5]; 63 g ai/ha
  Post-emerge Herbicidal Activity CASOB: 0
[5]; 250 g ai/ha
  Post-emerge Herbicidal Activity CASOB: 0
[6]; 63 g ai/ha
  Post-emerge Herbicidal Activity IPOHE: 95
[6]; 250 g ai/ha
  Post-emerge Herbicidal Activity IPOHE: 90
[7]; 63 g ai/ha
  Post-emerge Herbicidal Activity SETVI: 0
[7]; 250 g ai/ha
  Post-emerge Herbicidal Activity SETVI: 20
[8]; 63 g ai/ha
  Post-emerge Herbicidal Activity ECHCG: 0
[8]; 250 g ai/ha
  Post-emerge Herbicidal Activity ECHCG: 30
[9]; 63 g ai/ha
  Post-emerge Herbicidal Activity AMBEL: 0
[9]; 250 g ai/ha
  Post-emerge Herbicidal Activity AMBEL: 50
[10]; 63 g ai/ha
  Post-emerge Herbicidal Activity SORHA: 0
[10]; 250 g ai/ha
  Post-emerge Herbicidal Activity SORHA: 0
[11]; 63 g ai/ha
  Pre-emerge Herbicidal Activity CHEAL (phytotoxicity rating, scale 0-100): 100
[11]; 250 g ai/ha
  Pre-emerge Herbicidal Activity CHEAL (phytotoxicity rating, scale 0-100): 100
[12]; 63 g ai/ha
  Pre-emerge Herbicidal Activity ABUTH (phytotoxicity rating, scale 0-100): 100
[12]; 250 g ai/ha
  Pre-emerge Herbicidal Activity ABUTH (phytotoxicity rating, scale 0-100): 100
[13]; 63 g ai/ha
  Pre-emerge Herbicidal Activity DIGSA (phytotoxicity rating, scale 0-100): 80
[13]; 250 g ai/ha
  Pre-emerge Herbicidal Activity DIGSA (phytotoxicity rating, scale 0-100): 100
[14]; 63 g ai/ha
  Pre-emerge Herbicidal Activity CASOB (phytotoxicity rating, scale 0-100): 20
[14]; 250 g ai/ha
  Pre-emerge Herbicidal Activity CASOB (phytotoxicity rating, scale 0-100): 90
[15]; 63 g ai/ha
  Pre-emerge Herbicidal Activity IPOHE (phytotoxicity rating, scale 0-100): 20
[15]; 250 g ai/ha
  Pre-emerge Herbicidal Activity IPOHE (phytotoxicity rating, scale 0-100): 95
[16]; 63 g ai/ha
  Pre-emerge Herbicidal Activity SETVI (phytotoxicity rating, scale 0-100): 95
[16]; 250 g ai/ha
  Pre-emerge Herbicidal Activity SETVI (phytotoxicity rating, scale 0-100): 100
[17]; 63 g ai/ha
  Pre-emerge Herbicidal Activity ECHCG (phytotoxicity rating, scale 0-100): 40
[17]; 250 g ai/ha
  Pre-emerge Herbicidal Activity ECHCG (phytotoxicity rating, scale 0-100): 100
[18]; 63 g ai/ha
  Pre-emerge Herbicidal Activity SORHA (phytotoxicity rating, scale 0-100): 50
[18]; 250 g ai/ha
  Pre-emerge Herbicidal Activity SORHA (phytotoxicity rating, scale 0-100): 99
[19]; 63 g ai/ha
  Pre-emerge crop damage RICE (phytotoxicity rating, scale 0-100): 80
[19]; 250 g ai/ha
  Pre-emerge crop damage RICE (phytotoxicity rating, scale 0-100): 95
[20]; 63 g ai/ha
  Pre-emerge crop damage CORN (phytotoxicity rating, scale 0-100): 10
[20]; 250 g ai/ha
  Pre-emerge crop damage CORN (phytotoxicity rating, scale 0-100): 90
[21]; 63 g ai/ha
  Pre-emerge Herbicidal Activity AMARE (phytotoxicity rating, scale 0-100): 100
[21]; 250 g ai/ha
  Pre-emerge Herbicidal Activity AMARE (phytotoxicity rating, scale 0-100): 100
[22]; 63 g ai/ha
  Post-emerge Herbicidal Activity RICE (crop damage): 10
[22]; 250 g ai/ha
  Post-emerge Herbicidal Activity RICE (crop damage): 40
[23]; 63 g ai/ha
  Post-emerge Herbicidal Activity CORN (crop damage): 0
[23]; 250 g ai/ha
  Post-emerge Herbicidal Activity CORN (crop damage): 0
